# Experimental data from the supplement of paper PMC10307832.
# Compound: NCC(=O)Nc1ccc(-n2nc(C(F)(F)F)cc2-c2ccc3c(ccc4ccccc43)c2)cc1 + CS(=O)(=O)CCNCc1ccc(-c2ccc3ncnc(Nc4ccc(OCc5cccc(F)c5)c(Cl)c4)c3c2)o1 [Lapatinib] (partner 2 µM)
# Test: relative viability (nuclei count vs DMSO), 5 days (fraction); higher = more cells survive
# Details: first compound 0.02 µM
# Procedure, shortened: (§1)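 Lung cancer cell lines in 1536-well plates were dosed by pin tool the day after seeding, either with one drug alone or with a fixed anchor-drug dose plus five library-drug doses (not always all listed) in √10 steps. After 5 days, cells were fixed and their nuclei stained in one step (final 0.05% Triton X-100, 1% formaldehyde, 1 ug/ml Hoechst), then counted on 4× images. Relative viability is the nuclei count in treated wells divided by that in vehicle wells. Values are medians of duplicate plates.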
row,Cell Line,relative viability
1,NCI-H727,1.02
2,NCI-H1650,0.812
3,EBC-1,0.21
4,NCI-H1703,1.03
5,NCI-H1993,0.754
6,SW 1573,1.17
7,NCI-H838,0.934
8,NCI-H520,0.995
9,NCI-H2126,0.792
10,EMC-BAC-2,0.859
11,NCI-H2085,0.718
12,Calu-6,0.969
13,HCC-366,1.04

# Same assay, conditions: first compound 0.06325 µM
row,Cell Line,relative viability
1,NCI-H727,0.968
2,NCI-H1650,0.797
3,EBC-1,0.219
4,NCI-H1703,1.09
5,NCI-H1993,0.707
6,SW 1573,1
7,NCI-H838,0.893
8,NCI-H520,0.869
9,NCI-H2126,0.763
10,EMC-BAC-2,0.925
11,NCI-H2085,0.78
12,Calu-6,1.12
13,HCC-366,1.07

# Same assay, conditions: first compound 0.2 µM
row,Cell Line,relative viability
1,NCI-H727,0.655
2,NCI-H1650,0.472
3,EBC-1,0.215
4,NCI-H1703,1.41
5,NCI-H1993,0.859
6,SW 1573,1.17
7,NCI-H838,0.974
8,NCI-H520,0.935
9,NCI-H2126,0.787
10,EMC-BAC-2,0.903
11,NCI-H2085,0.742
12,Calu-6,1.19
13,HCC-366,1.12

# Same assay, conditions: first compound 0.6325 µM
row,Cell Line,relative viability
1,NCI-H727,0.917
2,NCI-H1650,0.801
3,EBC-1,0.222
4,NCI-H1703,0.964
5,NCI-H1993,0.909
6,SW 1573,0.978
7,NCI-H838,0.778
8,NCI-H520,0.938
9,NCI-H2126,0.793
10,EMC-BAC-2,0.9
11,NCI-H2085,0.813
12,Calu-6,1.16
13,HCC-366,0.997

# Same assay, conditions: first compound 2 µM
row,Cell Line,relative viability
1,NCI-H727,0.9
2,NCI-H1650,0.929
3,EBC-1,0.226
4,NCI-H1703,1.04
5,NCI-H1993,0.901
6,SW 1573,1.08
7,NCI-H838,0.576
8,NCI-H520,0.963
9,NCI-H2126,0.751
10,EMC-BAC-2,0.891
11,NCI-H2085,0.818
12,Calu-6,0.963
13,HCC-366,0.698

# Compound: C1CSC2=C(C(=O)N1)SC3=C2C=C(C=C3)O [kb NB 142-70] + CS(=O)(=O)N1CCN(Cc2cc3nc(-c4cccc5[nH]ncc45)nc(N4CCOCC4)c3s2)CC1 [Pictilisib] (partner 1 µM)
# Test: as above
# Details: first compound 0.1 µM
# Procedure, shortened: as §1
row,Cell Line,relative viability
1,NCI-H727,0.425
2,NCI-H1650,0.577
3,EBC-1,0.369
4,NCI-H1703,0.249
5,NCI-H1993,0.917
6,SW 1573,0.49
7,NCI-H838,0.444
8,LCLC-103H,0.631
9,NCI-H520,0.297
10,NCI-H2126,0.519
11,EMC-BAC-2,0.581
12,NCI-H2085,0.486
13,Calu-6,0.873
14,HCC-366,0.13
15,ChaGo-K-1,0.894
16,NCI-H441,0.497

# Same assay, conditions: first compound 1 µM
row,Cell Line,relative viability
1,NCI-H727,0.469
2,NCI-H1650,0.539
3,EBC-1,0.398
4,NCI-H1703,0.286
5,NCI-H1993,0.787
6,SW 1573,0.337
7,NCI-H838,0.447
8,LCLC-103H,0.652
9,NCI-H520,0.282
10,NCI-H2126,0.479
11,EMC-BAC-2,0.562
12,NCI-H2085,0.53
13,Calu-6,0.805
14,HCC-366,0.127
15,ChaGo-K-1,0.807
16,NCI-H441,0.429

# Same assay, conditions: first compound 3.162 µM
row,Cell Line,relative viability
1,NCI-H727,0.346
2,NCI-H1650,0.613
3,EBC-1,0.265
4,NCI-H1703,0.255
5,NCI-H1993,0.649
6,SW 1573,0.26
7,NCI-H838,0.424
8,LCLC-103H,0.638
9,NCI-H520,0.165
10,NCI-H2126,0.515
11,EMC-BAC-2,0.431
12,NCI-H2085,0.398
13,Calu-6,0.457
14,HCC-366,0.092
15,ChaGo-K-1,0.523
16,NCI-H441,0.305

# Compound: C1CSC2=C(C(=O)N1)SC3=C2C=C(C=C3)O [kb NB 142-70]
# Test: relative viability (nuclei count vs DMSO), 5 days (fraction); higher = more cells survive
# Details: 0.1 µM
# Procedure, shortened: (§2)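 A plate was accepted only when its control CV was below 25% and the cells had doubled at least once. Viability is defined from nuclear counts as treated wells divided by vehicle wells, with the median taken across plates. That median covers lung cancer cell lines grown in 1536-well plates, dosed by pinning at five √10-spaced library-drug concentrations, and counted in MetaXpress from 4× Hoechst images after 5 days.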
row,Cell Line,relative viability
1,NCI-H2342,0.897
2,NCI-H1623,0.98
3,NCI-H727,1.09
4,NCI-H1650,0.988
5,EBC-1,1.01
6,NCI-H1703,0.959
7,NCI-H1993,1.03
8,SW 1573,1.02
9,NCI-H838,0.965
10,LCLC-103H,1.03
11,NCI-H520,0.985
12,NCI-H2126,0.985
13,EMC-BAC-2,1.08
14,NCI-H2085,0.964
15,Calu-6,1.04
16,HCC-366,1.01
17,NCI-H1648,0.789
18,ChaGo-K-1,1.06
19,NCI-H522,1.04
20,SW 900,0.864
21,NCI-H441,0.975

# Same assay, conditions: 1 µM
row,Cell Line,relative viability
1,NCI-H2342,0.972
2,NCI-H1623,1.01
3,NCI-H727,1.13
4,NCI-H1650,1.02
5,EBC-1,1
6,NCI-H1703,0.973
7,NCI-H1993,0.857
8,SW 1573,0.84
9,NCI-H838,0.961
10,LCLC-103H,0.984
11,NCI-H520,0.884
12,NCI-H2126,0.974
13,EMC-BAC-2,0.972
14,NCI-H2085,0.952
15,Calu-6,0.996
16,HCC-366,0.976
17,NCI-H1648,0.925
18,ChaGo-K-1,1.05
19,NCI-H522,0.784
20,SW 900,1.02
21,NCI-H441,0.967

# Same assay, conditions: 3.162 µM
row,Cell Line,relative viability
1,NCI-H2342,0.912
2,NCI-H1623,0.951
3,NCI-H727,1.02
4,NCI-H1650,0.849
5,EBC-1,0.643
6,NCI-H1703,1.23
7,NCI-H1993,0.716
8,SW 1573,0.535
9,NCI-H838,0.963
10,LCLC-103H,1.03
11,NCI-H520,0.544
12,NCI-H2126,0.989
13,EMC-BAC-2,0.632
14,NCI-H2085,0.712
15,Calu-6,0.614
16,HCC-366,0.927
17,NCI-H1648,0.748
18,ChaGo-K-1,0.946
19,NCI-H522,0.635
20,SW 900,0.744
21,NCI-H441,0.637

# Compound: NCC(=O)Nc1ccc(-n2nc(C(F)(F)F)cc2-c2ccc3c(ccc4ccccc43)c2)cc1
# Test: as above
# Details: 0.02 µM
# Procedure, shortened: as §2
row,Cell Line,relative viability
1,NCI-H2342,0.93
2,NCI-H1623,1.05
3,NCI-H727,0.858
4,NCI-H1650,0.913
5,EBC-1,1.01
6,NCI-H1703,1.01
7,NCI-H1993,0.934
8,SW 1573,0.94
9,NCI-H838,0.958
10,LCLC-103H,0.957
11,NCI-H520,1.01
12,NCI-H2126,0.981
13,EMC-BAC-2,0.918
14,NCI-H2085,0.961
15,Calu-6,0.962
16,HCC-366,1.01
17,NCI-H1648,0.751
18,ChaGo-K-1,0.98
19,NCI-H522,0.886
20,SW 900,0.717
21,NCI-H441,0.977

# Same assay, conditions: 0.06325 µM
row,Cell Line,relative viability
1,NCI-H2342,1.01
2,NCI-H1623,1.02
3,NCI-H727,1.16
4,NCI-H1650,0.995
5,EBC-1,1.03
6,NCI-H1703,0.816
7,NCI-H1993,1.1
8,SW 1573,1.01
9,NCI-H838,0.998
10,LCLC-103H,1.07
11,NCI-H520,1.04
12,NCI-H2126,1.04
13,EMC-BAC-2,1.01
14,NCI-H2085,1.01
15,Calu-6,1.05
16,HCC-366,1.07
17,NCI-H1648,0.939
18,ChaGo-K-1,0.994
19,NCI-H522,0.978
20,SW 900,0.941
21,NCI-H441,1.04

# Same assay, conditions: 0.2 µM
row,Cell Line,relative viability
1,NCI-H2342,0.988
2,NCI-H1623,0.943
3,NCI-H727,1.02
4,NCI-H1650,0.847
5,EBC-1,1.07
6,NCI-H1703,0.972
7,NCI-H1993,1.05
8,SW 1573,1.03
9,NCI-H838,1
10,LCLC-103H,0.963
11,NCI-H520,1.1
12,NCI-H2126,1.04
13,EMC-BAC-2,1.05
14,NCI-H2085,1.03
15,Calu-6,1.03
16,HCC-366,1
17,NCI-H1648,0.9
18,ChaGo-K-1,0.941
19,NCI-H522,0.922
20,SW 900,0.856
21,NCI-H441,1.28

# Same assay, conditions: 0.6325 µM
row,Cell Line,relative viability
1,NCI-H2342,0.986
2,NCI-H1623,0.923
3,NCI-H727,0.922
4,NCI-H1650,0.971
5,EBC-1,1.02
6,NCI-H1703,0.889
7,NCI-H1993,1
8,SW 1573,0.971
9,NCI-H838,0.909
10,LCLC-103H,0.979
11,NCI-H520,0.933
12,NCI-H2126,0.993
13,EMC-BAC-2,0.931
14,NCI-H2085,0.982
15,Calu-6,1
16,HCC-366,1.01
17,NCI-H1648,0.989
18,ChaGo-K-1,0.971
19,NCI-H522,0.96
20,SW 900,0.784
21,NCI-H441,0.947

# Same assay, conditions: 2 µM
row,Cell Line,relative viability
1,NCI-H2342,0.911
2,NCI-H1623,1.01
3,NCI-H727,1.09
4,NCI-H1650,1.09
5,EBC-1,1.01
6,NCI-H1703,0.812
7,NCI-H1993,1.04
8,SW 1573,0.877
9,NCI-H838,0.864
10,LCLC-103H,0.966
11,NCI-H520,1.05
12,NCI-H2126,0.997
13,EMC-BAC-2,1
14,NCI-H2085,1.01
15,Calu-6,0.977
16,HCC-366,0.934
17,NCI-H1648,1.11
18,ChaGo-K-1,1.03
19,NCI-H522,0.925
20,SW 900,0.814
21,NCI-H441,0.956
